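Briefly, cells in 96-well plates were exposed to five compound concentrations for 48 h, and endpoints were estimated by linear interpolation. Here, GI50 denotes the concentration required for 50% inhibition of growth. The concentration for full growth arrest is given as TGI.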
Key:
Assay in all cases: NCI tumour cell line growth inhibition, 48 h
[1] = tested on: M14 melanoma
[2] = tested on: U251 CNS
[3] = tested on: HOP-92 NSCLC
[4] = tested on: NCI-H460 lung
[5] = tested on: SW-620 colon
[6] = tested on: EKVX NSCLC
[7] = tested on: OVCAR-3 ovarian
[8] = tested on: A498 renal
[9] = tested on: KM12 colon
[10] = tested on: DU-145 prostate
[11] = tested on: T-47D breast
[12] = tested on: TK-10 renal
[13] = tested on: HL-60(TB) leukemia
[14] = tested on: A549 NSCLC
[15] = tested on: IGROV1 ovarian
[16] = tested on: OVCAR-4 ovarian
[17] = tested on: MCF7 breast
[18] = tested on: ACHN renal
[19] = tested on: NCI-H23 lung
[20] = tested on: SNB-19 CNS
[21] = tested on: OVCAR-8 ovarian
[22] = tested on: K-562 leukemia
[23] = tested on: RPMI-8226 leukemia
[24] = tested on: NCI-H226 lung
[25] = tested on: HS 578T breast
[26] = tested on: COLO 205 colon
[27] = tested on: UO-31 renal
[28] = tested on: SF-268 CNS
[29] = tested on: LOX IMVI melanoma
[30] = tested on: SR leukemia
[31] = tested on: MALME-3M melanoma
[32] = tested on: MDA-MB-231 breast
[33] = tested on: NCI-H522 lung
[34] = tested on: HCT-116 colon
[35] = tested on: SF-295 CNS
[36] = tested on: NCI/ADR-RES ovarian
[37] = tested on: HCC-2998 colon
[38] = tested on: SK-OV-3 ovarian
[39] = tested on: SK-MEL-5 melanoma
[40] = tested on: MDA-MB-435
[41] = tested on: CAKI-1 renal
[42] = tested on: MOLT-4 leukemia
[43] = tested on: SK-MEL-2 melanoma
[44] = tested on: SK-MEL-28 melanoma
[45] = tested on: SF-539 CNS
[46] = tested on: RXF 393 renal
[47] = tested on: SNB-75 CNS
[48] = tested on: OVCAR-5 ovarian
[49] = tested on: HT29 colon
[50] = tested on: SN12C renal
[51] = tested on: UACC-62 melanoma
[52] = tested on: CCRF-CEM leukemia
[53] = tested on: HOP-62 NSCLC
[54] = tested on: UACC-257 melanoma
[55] = tested on: PC-3 prostate
[56] = tested on: MDA-MB-468 breast
[57] = tested on: 786-0 renal
[58] = tested on: HCT-15 colon
[59] = tested on: BT-549 breast

Structure (SMILES): C#C[C@]1(O)CC[C@H]2[C@@H]3CC=C4c5sc(-c6ccc([N+](=O)[O-])cc6)nc5CC[C@]4(C)[C@H]3CC[C@@]21C
- GI50 [1]: 2740 nM
- TGI [1]: 12.2 µM
- GI50 [2]: 2990 nM
- TGI [2]: 18.8 µM
- GI50 [3]: 22.3 µM
- TGI [3]: 47.4 µM
- GI50 [4]: 6.19 µM
- TGI [4]: 25.8 µM
- GI50 [5]: 8.39 µM
- TGI [5]: 27.2 µM
- GI50 [6]: 10.1 µM
- TGI [6]: 23.8 µM
- GI50 [7]: 14.9 µM
- TGI [7]: 31.7 µM
- GI50 [8]: 4.04 µM
- TGI [8]: 13.8 µM
- GI50 [9]: 17 µM
- TGI [9]: 38.4 µM
- GI50 [10]: 12.8 µM
- TGI [10]: 30.3 µM
- GI50 [11]: 7.23 µM
- TGI [11]: 25.2 µM
- GI50 [12]: 13.8 µM
- TGI [12]: 26.7 µM
- GI50 [13]: 13.5 µM
- TGI [13]: 42.6 µM
- GI50 [14]: 12.5 µM
- TGI [14]: 36.2 µM
- GI50 [15]: 10.3 µM
- TGI [15]: 30.9 µM
- GI50 [16]: 15.4 µM
- TGI [16]: 43.7 µM
- GI50 [17]: 3.07 µM
- TGI [17]: 16.6 µM
- GI50 [18]: 12.2 µM
- TGI [18]: 24.6 µM
- GI50 [19]: 13.8 µM
- TGI [19]: 29.9 µM
- GI50 [20]: 13.8 µM
- TGI [20]: 29.8 µM
- GI50 [21]: 15.3 µM
- TGI [21]: 38.5 µM
- GI50 [22]: 3.26 µM
- TGI [22]: > 100 µM
- GI50 [23]: 404 nM
- TGI [23]: 6.27 µM
- GI50 [24]: 18.1 µM
- TGI [24]: 50.2 µM
- GI50 [25]: 2040 nM
- TGI [25]: 10.3 µM
- GI50 [26]: 14.9 µM
- TGI [26]: 33.8 µM
- GI50 [27]: 5.02 µM
- TGI [27]: 16.2 µM
- GI50 [28]: 12.8 µM
- TGI [28]: 43.6 µM
- GI50 [29]: 6.89 µM
- TGI [29]: 33.1 µM
- GI50 [30]: 2490 nM
- TGI [30]: > 100 µM
- GI50 [31]: 3.59 µM
- TGI [31]: 16.5 µM
- GI50 [32]: 12.3 µM
- TGI [32]: 27.4 µM
- GI50 [33]: 15.1 µM
- TGI [33]: 38 µM
- GI50 [34]: 10.2 µM
- TGI [34]: 23.3 µM
- GI50 [35]: 410 nM
- TGI [35]: 1800 nM
- GI50 [36]: 16.4 µM
- TGI [36]: 67.9 µM
- GI50 [37]: 7.21 µM
- TGI [37]: 23.1 µM
- GI50 [38]: 12.3 µM
- TGI [38]: 30.6 µM
- GI50 [39]: 5.45 µM
- TGI [39]: 17.9 µM
- GI50 [40]: 11.9 µM
- TGI [40]: 25.9 µM
- GI50 [41]: 10.8 µM
- TGI [41]: 22.7 µM
- GI50 [42]: 2610 nM
- TGI [42]: 33.1 µM
- GI50 [43]: 7.18 µM
- TGI [43]: 21.3 µM
- GI50 [44]: 7.33 µM
- TGI [44]: 20.5 µM
- GI50 [45]: 895 nM
- TGI [45]: 3.61 µM
- GI50 [46]: 625 nM
- TGI [46]: 3.18 µM
- GI50 [47]: 2930 nM
- TGI [47]: 18.6 µM
- GI50 [48]: 12 µM
- TGI [48]: 24.3 µM
- GI50 [49]: 11.4 µM
- TGI [49]: 35.2 µM
- GI50 [50]: 13 µM
- TGI [50]: 26.3 µM
- GI50 [51]: 14.3 µM
- TGI [51]: 27.4 µM
- GI50 [52]: 4.36 µM
- TGI [52]: 31.9 µM
- GI50 [53]: 11.5 µM
- TGI [53]: 30 µM
- GI50 [54]: 12.1 µM
- TGI [54]: 25 µM
- GI50 [55]: 7.18 µM
- TGI [55]: 95.7 µM
- GI50 [56]: 12.4 µM
- TGI [56]: 28.9 µM
- GI50 [57]: 1840 nM
- TGI [57]: 13.4 µM
- GI50 [58]: 3.99 µM
- TGI [58]: 23.9 µM
- GI50 [59]: 3.76 µM
- TGI [59]: 16.7 µM

Source: PubChem BioAssay (NCI)
